Measured values as given in patent US10131650B2, “Alpha-helix analog having triazine-piperazine backbone and method for preparing same” (POSCO, priority 2014, dated 2018).
Each block holds one compound with its values, some of them ahead of it.

Assays:
[1] = target: α-synuclein disease-associated mutant A53T (Homo sapiens, UniProt P37840, A53T); test: Thioflavin-T aggregation assay; type: biochemical; conditions: 30 hours, 37° C.
[2] = target: T1, interaction between MCL-1 and BH3 (Homo sapiens, UniProt Q07820); test: Competitive fluorescence polarization assay with FITC-MCL-1-BH3 peptide; type: binding; conditions: for activity in competitive fluorescence polarization assay (MCL-1/BH3): result in words; for Ki: competitive fluorescence polarization, FITC-MCL-1-BH3 50 nM, 0.8 μM MCL-1ΔNΔC, read-out: Ki, dissociation of the interaction between MCL-1 and BH-3
T1 construct: GST (cleaved yes); made in house; host or cells: E. coli BL21(DE3)
T1 sequence (Q07820 172-320): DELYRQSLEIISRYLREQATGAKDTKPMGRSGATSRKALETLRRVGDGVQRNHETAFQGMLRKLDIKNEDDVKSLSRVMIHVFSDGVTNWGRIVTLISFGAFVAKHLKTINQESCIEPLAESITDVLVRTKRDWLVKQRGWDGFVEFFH
Description: MCL-1 protein was incubated with sulfo-NHS-Biotin (Thermo Scientific) in 0.1 M NaHCO3 buffer (pH 8.3) for 45 minutes at room temperature to biotinylate the MCL-1 protein (because MCL-1ΔNΔC protein used in the test have several Lysine residues being exposed in a surface and being apart from the active site of BH3 binding, the protein is biotinylated with modification). The reaction was quenched with addition of 1.5 M hydroxylamine. The labeled protein was separated with the dialysis with 1×PBS buffer containing 0.05% Tween20 (pH 7.4). The degree of labeling was determined according to the manufacturer's instructions (degree of biotinylation: 1.05 biotin per protein).
Fluorescence polarization values were measured with a SpectraMax M5 Multi-Mode Microplate Reader (Molecular Devices). […] KD was calculated with GraphPad Prism 4 software. […] N-terminal labeled FITC-MCL-1-BH3 peptide (FITC-Abu-[…]-NH2) was synthesized and purified with HPLC. The compounds was incubated at various concentrations with FITC-MCL-1-BH3 (50 nM) and 0.8 μM MCL-1ΔNΔC in binding buffer for 30 minutes and then was added by FITC-MCL-1-BH3 (50 nM). After incubated with addition of various concentrations of compounds, the fluorescence polarization was measured. Ki was calculated by using the conventional method (Nikolovska-Coleska, Z. et al, Anal. Biochem. 2004, 332, 261).

[3] = Water solubility in phosphate buffered saline; type: physicochemical; conditions: aqueous buffer; phosphate buffered saline at pH 7.4
From the text: As a result of analyzing the three peptoids, the selected compounds had the following structures of 9a (Chemical formula 4), 9b (Chemical formula 5) and 9c (Chemical formula 6), respectively.

[4] = target: T2, MCL-1/BAK interaction in Jurkat T cells (Homo sapiens, UniProt Q07820); test: Co-immunoprecipitation and Western blotting; type: cell-based; conditions: 2.5 hours, MCL-1 immunoprecipitation, Western blot
T2 construct: endogenous in cells; host or cells: Jurkat T cells
T2 sequence (Q07820 whole entry): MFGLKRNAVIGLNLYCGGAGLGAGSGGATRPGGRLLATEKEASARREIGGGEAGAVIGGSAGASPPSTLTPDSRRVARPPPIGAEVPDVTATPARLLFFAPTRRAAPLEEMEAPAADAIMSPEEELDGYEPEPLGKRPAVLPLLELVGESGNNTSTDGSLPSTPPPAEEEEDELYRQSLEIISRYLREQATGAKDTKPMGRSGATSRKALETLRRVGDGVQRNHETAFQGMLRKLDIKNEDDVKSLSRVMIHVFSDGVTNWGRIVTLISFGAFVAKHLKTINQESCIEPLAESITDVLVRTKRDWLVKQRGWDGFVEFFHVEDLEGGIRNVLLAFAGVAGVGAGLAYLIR
Description: In Opti-MEM medium, Jurkat T cells (1×10^7 cells) were treated with DMSO or compound. Cells were harvested after culturing for 2.5 hours, washed once with PBS, and lysed on ice using lysis buffer (50 mM Tris-HCl, pH 7.4, 150 mM NaCl, 1 mM EDTA, 1 mM DTT, 0.5% NP-40 and complete protease inhibitor tablet). Cell lysates were incubated with anti-MCL-1 antibody (S-19, Santa Cruz) overnight at 4° C. and incubated with protein A/G agarose for 1 hour. The beads were precipitated, washed at three times with lysis buffer, and the denatured protein was subjected to western blotting using anti-BAK (Cell Signaling) and anti-MCL-1 antibody. Western blot analysis was performed on an Immobilon-FL (Millipore) PVDF membrane. Goat anti-Rabbit IRDye 680 antibody (Licor) was used as a secondary antibody and the signal was analyzed with Odyssey 3.0 software.

A549 cells = test: Confocal microscopy, cell permeation; type: cell-based; conditions: fluorescence-labeled compound
Description: A549 cells (5×10^3 cells) were plated MEM medium containing 10% FBS of 96-well plates. Cells were maintained for 24 hours, washed with PBS, and then […] of fluorescence-labeled compound or 5 (6)-carboxyfluorescein was treated in Opti-MEM medium and incubated for 2.5 hours. The cells were washed with 1×PBS (2 times) and fluorescence images were analyzed.

U266 cells = test: Caspase 3/7 assay; type: cell-based; conditions: 16 hours
[5] = system: U266 cells (multiple myeloma); test: Cell viability assay; type: cell-based; conditions: 24 hours
[6] = system: HEK293 embryonic kidney cells; test: Cell viability assay; type: cell-based; conditions: 24 hours
α-synuclein = target: T3, α-synuclein (Homo sapiens, UniProt P37840); test: Fluorescence polarization assay, binding to wild type α-synuclein; conditions: result in words
T3 construct: GST (cleaved yes); made in house; host or cells: E. coli Rosetta 2 (DE3)

Jurkat leukemia T cells = test: Cell viability assay; type: cell-based; conditions: 24 hours
Description: (§1) Jurkat T cells were cultured in RPMI 1640 medium containing 10% FBS, and 4×10^4 Jurkat T cells were seeded in 100 μL Opti-MEM medium (Invitrogen) of 96-well plate. WS-1 cells were cultured in MEM medium containing 10% FBS and 2×10^4 WS-1 cells were seeded in 100 μL MEM medium containing 10% FBS of 96-well plate for 24 hours, washed with PBS, and cultured in 100 μL Opti-MEM. The cells were maintained at serum-starved state for 6 hours and treated with the compound. After culturing for 24 hours, the cell viability was assayed using the CellTiter 96 AQueous Non-Radioactive Cell Proliferation Assay kit (Promega) according to the manufacturer's instructions.

[7] = system: WS-1 human fibroblast cells; test: Cell viability assay; type: cell-based; conditions: 24 hours
Description: as §1

Mcl-1172-320 = Mcl-1172-320 (Homo sapiens, UniProt Q07820); test: Competitive fluorescence polarization assay with labeled Bak-BH3 peptide
Sequence of Mcl-1172-320 (Q07820 172-320): as the sequence (Q07820 172-320) above
Description: The cell was treated with 1 mM IPTG (isopropyl β-D-1-thiogalactopyranoside) to induce the protein expression. The cell pellet was resuspended with lysis buffer (20 mM Tris, pH 7.2, 250 mM NaCl, complete protease tablet (Roche)) and sonicated to be lysis. After centrifuging, the cell lysate was applied to a 5-mL GSTrap HP column (GE Life Sciences) and performed according to the manufacturer's instructions.
Various concentrations of phenyl-piperazine-triazine in 40 μL of buffer were added to the mixture. After incubating for 15 minutes, the Fluorescence polarization (mP units) was measured with Infinite®200 PRO Microplate Reader (Tecan).

Bcl-xL1-212 = Bcl-xL1-212 (Homo sapiens, UniProt Q07817); test: Competitive fluorescence polarization assay, selectivity; type: binding; conditions: competitive FP
Sequence of Bcl-xL1-212 (Q07817 1-212): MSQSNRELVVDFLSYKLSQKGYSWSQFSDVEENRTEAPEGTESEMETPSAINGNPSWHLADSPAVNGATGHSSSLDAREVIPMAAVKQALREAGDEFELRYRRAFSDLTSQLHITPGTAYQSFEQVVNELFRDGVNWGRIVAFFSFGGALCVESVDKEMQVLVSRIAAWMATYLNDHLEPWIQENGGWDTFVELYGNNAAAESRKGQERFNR
From the text: Because BH3-binding pocket of MCL-1 is similar to BH3-binding pocket of Bcl-2 family proteins such as Bcl-xL, the present inventors tested the selectivity of PPT-31.

aggregation of α-synuclein (onset / inhibition) [1]: had not inhibition of aggregation
activity in competitive fluorescence polarization assay (MCL-1/BH3) [2]: weak activity
solubility [3]: ~100 µg/mL
SMILES: CCNc1nc(NCc2ccccc2)nc(N2CCN(c3nc(N)nc(NCc4ccc5c(c4)OCO5)n3)CC2Cc2ccccc2)n1 (stereo not drawn) [Chemical formula 4, 6-(4-(4-amino-6-((benzo[d][1,3]dioxol-5-ylmethyl)amino)-1,3,5-triazin-2-yl)-2-benzylpiperazin-1-yl)-N^2-benzyl-N^4-ethyl-1,3,5-triazine-2,4-diamine]

inhibition of MCL-1/BAK protein interaction in cells [4]: did not inhibit
activity in competitive fluorescence polarization assay (MCL-1/BH3) [2]: did not bind
SMILES: CCNc1nc(N)nc(N2CCN(c3nc(NCC)nc(NCC)n3)CC2)n1 [9-nc, 6-(4-(4-amino-6-(ethylamino)-1,3,5-triazin-2-yl)piperazin-1-yl)-N^2,N^4-diethyl-1,3,5-triazine-2,4-diamine, reference compound]

inhibition of MCL-1/BAK protein interaction in cells [4]: effectively inhibit
Ki [2]: 17.2 µM
solubility [3]: ~100 µg/mL
SMILES: CCCN(CC1CC1)c1nc(N)nc(N2CCN(c3nc(NCC)nc(NCc4ccc5c(c4)OCO5)n3)C(Cc3ccccc3)C2)n1 (stereo not drawn) [Chemical formula 5, 6-(4-(4-amino-6-((cyclopropylmethyl)(propyl)amino)-1,3,5-triazin-2-yl)-2-benzylpiperazin-1-yl)-N^2-(benzo[d][1,3]dioxol-5-ylmethyl)-N^4-ethyl-1,3,5-triazine-2,4-diamine]

cell permeability (A549 cells): permeable to cells
inhibition of MCL-1/BAK protein interaction in cells [4]: inhibited
Ki [2]: 9.3 µM
binding to α-synuclein (α-synuclein): showed affinity
solubility [3]: ~100 µg/mL
SMILES: CCNc1nc(NCCc2ccc(O)cc2)nc(N2CCN(c3nc(N)nc(Nc4ccc(Oc5ccccc5)cc4)n3)CC2Cc2ccccc2)n1 (stereo not drawn) [Chemical formula 6, 4-(2-((4-(4-(4-amino-6-((4-phenoxyphenyl)amino)-1,3,5-triazin-2-yl)-2-benzylpiperazin-1-yl)-6-(ethylamino)-1,3,5-triazin-2-yl)amino)ethyl)phenol]
caspase 3/7 activity (U266 cells): increased the caspase activity in a concentration-dependent manner
survival of cancer cells [5]: effectively inhibited the survival
survival of normal cells [6]: did not affect survival
survival of cancer cells (Jurkat leukemia T cells): effectively inhibited the survival
survival of normal cells [7]: did not affect survival

Ki (Mcl-1172-320): 7.3 µM
inhibitory effect on the Mcl-1/BH3 interaction (Mcl-1172-320; at 10 μM and 50 μM, among 36 library compounds): highest inhibitory effect
inhibition of the interaction between Bcl-xL1-212 and BH3 (Bcl-xL1-212): did not inhibit
SMILES: CCNc1nc(NCc2ccccc2)nc(N2CCN(c3ccc(C(N)=O)cc3NCc3ccccc3)CC2Cc2ccccc2)n1 (stereo not drawn) [PPT-31, 2-{4-(2-aminobenzyl-4-carbamoylphenyl)-2-benzyl-piperazine}-4-aminoethyl-6-aminobenzyl-[1,3,5]triazine]
